For 59 compounds, IC50 results are on record in patent US9902728B2, “Pyrrolo and pyrazolopyrimidines as ubiquitin-specific protease 7 inhibitors” (Forma Therapeutics, Inc., priority 2014, dated 2018).

T1 sequence (Q93009 208-1102): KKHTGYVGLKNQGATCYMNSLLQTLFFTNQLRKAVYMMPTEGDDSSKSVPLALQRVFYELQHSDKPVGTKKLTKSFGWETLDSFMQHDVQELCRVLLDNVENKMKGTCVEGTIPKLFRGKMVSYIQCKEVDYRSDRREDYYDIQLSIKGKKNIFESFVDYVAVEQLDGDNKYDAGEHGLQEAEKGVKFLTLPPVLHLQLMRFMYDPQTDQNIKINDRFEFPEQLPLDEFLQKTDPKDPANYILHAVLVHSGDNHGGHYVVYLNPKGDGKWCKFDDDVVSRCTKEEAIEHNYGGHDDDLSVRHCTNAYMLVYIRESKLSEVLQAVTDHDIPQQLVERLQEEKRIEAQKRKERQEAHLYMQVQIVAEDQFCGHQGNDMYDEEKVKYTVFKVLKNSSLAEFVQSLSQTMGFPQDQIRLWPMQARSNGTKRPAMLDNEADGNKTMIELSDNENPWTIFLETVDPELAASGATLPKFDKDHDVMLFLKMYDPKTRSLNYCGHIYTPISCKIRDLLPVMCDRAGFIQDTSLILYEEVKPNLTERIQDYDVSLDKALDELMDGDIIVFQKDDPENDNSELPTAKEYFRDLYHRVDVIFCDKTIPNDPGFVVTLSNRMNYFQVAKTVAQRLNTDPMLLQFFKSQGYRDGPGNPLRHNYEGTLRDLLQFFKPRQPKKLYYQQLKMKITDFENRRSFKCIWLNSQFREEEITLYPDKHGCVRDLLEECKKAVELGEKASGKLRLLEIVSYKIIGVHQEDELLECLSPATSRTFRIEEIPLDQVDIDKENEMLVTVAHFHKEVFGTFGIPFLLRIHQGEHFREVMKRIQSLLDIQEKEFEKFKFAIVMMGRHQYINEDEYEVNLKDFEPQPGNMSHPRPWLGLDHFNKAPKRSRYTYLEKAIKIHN

One test concerns the target T1, USP7 (Homo sapiens, UniProt Q93009).
T1 construct: USP7, construct USP7 (208-1102) 6*His, Viva Biotech; 6xHis (C); purchased Viva Biotech
Description: USP7 Assay A (Ubitquin-Rhodamine 110 Assay). As to conditions: USP7_IC50, USP7 activity in USP7 assay A and B (table does not say which assay per compound). Format: biochemical. The procedure, abridged:
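Ub-Rh110 cleavage in 20 mM Tris-HCl pH 8.0 with 1 mM GSH, 0.03% BGG, 0.01% Triton X-100; compound preincubated with enzyme 30 min before substrate.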
Consider `CC1(C(=O)N2CCC(O)(Cn3cnc4c(cnn4-c4cccc(N5CC6CC(C5)O6)c4)c3=O)CC2)CC1` [Compound I-1692], for which the IC50 was less than 200 nM.

The test is the same for the next values; noted with them: USP7 activity in USP7 assay A and B (table does not say which assay per compound); read-out: USP7_IC50.
Take `Cc1ccc(-c2ccc(-n3ncc4c(=O)n(CC5(O)CCN(C(=O)C6CC6)CC5)cnc43)cc2)nc1` [Compound I-1726]: the IC50 lay within 200 to 1000 nM.

With `Cc1ncc(C(=O)N2CCC(O)(Cn3cnc4c(cnn4-c4ccc(-n5cc(Cl)cn5)cc4)c3=O)CC2)o1` [Compound I-1733], the IC50 was less than 200 nM.

Regarding `COc1ccc(OC2CCC(C(=O)N3CCC(O)(Cn4cnc5c(cnn5-c5ccc(F)cc5)c4=O)CC3)CC2)nc1` (centres unmarked) [Compound I-1019], the IC50 was 200 to 1000 nM.

As for `CC1(C(=O)N2CCC(O)(Cn3cnc4c(cnn4-c4ccc(N5CC(N6CCOCC6)C5)cc4)c3=O)CC2)CC1` [Compound I-1636], the IC50 fell in the range of 200 to 1000 nM.

As for `C[C@H](CC(=O)N1CCC(O)(Cn2cnc3c(cnn3-c3ccc(N4CC[C@](C)(O)C4)cc3)c2=O)CC1)n1cccn1` [Compound I-839], the IC50 is less than 200 nM.

Regarding `CC(=O)N1CCC(O)(Cn2cnc3c(cnn3-c3ccc(Cl)cc3)c2=O)CC1` [Compound I-1625], the IC50 was more than 10000 nM.

With `Cc1ncc(-c2ccc(C(=O)N3CCC(O)(Cn4cnc5c(cnn5-c5ccc(Cl)cc5)c4=O)CC3)cc2)n1C` [Compound I-1101], the IC50 was 1000 to 10000 nM.

`CC1(C(=O)N2CCC(O)(Cn3cnc4c(cnn4-c4cccc(N5CC(C(C)(C)O)C5)c4)c3=O)CC2)CC1` [Compound I-1676]: the IC50 was less than 200 nM.

For `Cc1ccc(-n2ncc3c(=O)n(CC4(O)CCN(C(=O)c5ccc(Cl)cc5N)CC4)cnc32)cc1` [Compound I-1140], the IC50 fell in the range of 200 to 1000 nM.

For the compound `CC1(C(=O)N2CCC(O)(Cn3cnc4c(cnn4-c4cccc(N5CCC(F)(F)CC5)c4)c3=O)CC2)CC1` [Compound I-1675], the IC50 is less than 200 nM.

As for `CN1CC(O)(COc2ccc(-n3ncc4c(=O)n(CC5(O)CCN(C(=O)c6ccc(F)cc6)CC5)cnc43)cc2)C1` [Compound I-816], the IC50 was less than 200 nM.

On to `CC1(C(=O)N2CCC(O)(Cn3cnc4c(cnn4-c4ccc(N5CC(O)C5)cc4)c3=O)CC2)CC1` [Compound I-1677], for which the IC50 lay in the range of 200 to 1000 nM.

Consider `O=C(C1CC(Nc2ccccn2)C1)N1CCC(O)(Cn2cnc3c(cnn3-c3ccc(F)cc3)c2=O)CC1` (centres unmarked) [Compound I-1035], for which the IC50 fell in the range of 200 to 1000 nM.

As for `O=C(C1CCC(NC2CC2)CC1)N1CCC(O)(Cn2cnc3c(cnn3-c3ccc(F)cc3)c2=O)CC1` (centres unmarked) [Compound I-769], the IC50 lay in the range of 200 to 1000 nM.

Turning to `O=C(c1cnc(C2CC2)o1)N1CCC(O)(Cn2cnc3c(cnn3-c3ccc(-c4cccnc4)cc3)c2=O)CC1` [Compound I-985], the IC50 was in the range of 200 to 1000 nM.

On to `Cn1cc(C(=O)N2CCC(O)(Cn3cnc4c(cnn4-c4ccc(F)cc4)c3=O)CC2)c(Cc2ccccc2)n1` [Compound I-1161], for which the IC50 was less than 200 nM.

On to `Cc1cnn([C@H](CC(=O)N2CCC(O)(Cn3cnc4c(cnn4-c4ccc(F)cc4)c3=O)CC2)C(F)F)c1` [Compound I-735], for which the IC50 fell in the range of 1000 to 10000 nM.

For the compound `O=C(C1CCC(Oc2cccnn2)CC1)N1CCC(O)(Cn2cnc3c(cnn3-c3ccc(F)cc3)c2=O)CC1` (centres unmarked) [Compound I-1212], the IC50 lay within 200 to 1000 nM.

Turning to `CC1(C(=O)N2CCC(O)(Cn3cnc4c(cnn4-c4cccc(OC5CCC(F)(F)CC5)c4)c3=O)CC2)CC1` [Compound I-1047], the IC50 is less than 200 nM.

For `O=C(c1cccn1Cc1ccc(F)cc1)N1CCC(O)(Cn2cnc3c(cnn3-c3ccc(F)cc3)c2=O)CC1` [Compound I-558], the IC50 was 200 to 1000 nM.

In the case of `Cc1ccc(C(=O)N2CCC(O)(Cn3cnc4c(cnn4-c4ccc(-n5cc(OCCO)cn5)cc4)c3=O)CC2)cc1` [Compound I-672], the IC50 fell in the range of 200 to 1000 nM.

On to `O=C(C[C@@H](C(F)F)n1cccn1)N1CCC(O)(Cn2cnc3c(cnn3-c3ccc(-c4ccccc4)cc3)c2=O)CC1` [Compound I-646], for which the IC50 was 1000 to 10000 nM.

Turning to `C[C@@]1(O)CCN(c2ccc(-n3ncc4c(=O)n(CC5(O)CCN(C(=O)C[C@H](C(F)F)n6cccn6)CC5)cnc43)cc2)C1` [Compound I-834], the IC50 fell in the range of 1000 to 10000 nM.

Take `Cn1cc(C2CCC(C(=O)N3CCC(O)(Cn4cnc5c(cnn5-c5ccc(F)cc5)c4=O)CC3)CC2)cn1` (centres unmarked) [Compound I-727]: the IC50 lay in the range of 200 to 1000 nM.

The test is the same for the next values; noted with them: USP7 assay A and B (table does not say which assay per compound); read-out: USP7_IC50.
On to `O=C(C1CC1)N1CCC(O)(Cn2cnc3c(cnn3-c3ccc(-c4ccccc4)c(N4CCNCC4)c3)c2=O)CC1` [Compound I-698], for which the IC50 fell in the range of 200 to 1000 nM.

On to `CN(C)C(=O)N1CCC(O)(Cn2cnc3c(cnn3-c3ccc(Oc4ccccc4)cc3)c2=O)CC1` [Compound I-500], for which the IC50 is more than 10000 nM.

Take `Cc1ncoc1C(=O)N1CCC(O)(Cn2cnc3c(cnn3-c3ccc(F)cc3)c2=O)CC1` [Compound I-312]: the IC50 is 1000 to 10000 nM.

As for `O=C(c1cccc(CN2CCCC2)c1)N1CCC(O)(Cn2cnc3c(cnn3-c3ccc(F)cc3)c2=O)CC1` [Compound I-510], the IC50 is more than 10000 nM.

Regarding `Nc1cc(Cl)ccc1C(=O)N1CCC(O)(Cn2cnc3c(cnn3-c3ccccc3)c2=O)CC1` [Compound I-232], the IC50 lay within 200 to 1000 nM.

As to `O=C(C1CC1)N1CCC(O)(Cn2cnc3c(cnn3-c3cccc(N4CCC(c5ccccc5)CC4)c3)c2=O)CC1` [Compound I-1205], the IC50 was 1000 to 10000 nM.

Take `CC1(C(=O)N2CCC(O)(Cn3cnc4c(cnn4-c4ccc(F)cc4)c3=O)CC2)CCC1` [Compound I-464]: the IC50 lay within 200 to 1000 nM.

As for `CN(C(=O)c1ccc(C(=O)N2CCC(O)(Cn3cnc4c(cnn4C)c3=O)CC2)cc1)c1ccccc1` [Compound I-108], the IC50 was 1000 to 10000 nM.

Turning to `C#CC(=O)NC1CC(C(=O)N2CCC(O)(Cn3cnc4c(cnn4-c4ccccc4)c3=O)CC2)C1` (centres unmarked) [Compound I-259], the IC50 was 1000 to 10000 nM.

On to `O=C(C1CC1)N1CCC(O)(Cn2cnc3c(cnn3-c3cccc(Nc4ccc5ncsc5c4)c3)c2=O)CC1` [Compound I-1257], for which the IC50 lay in the range of 200 to 1000 nM.

With `Nc1ccc(-n2ncc3c(=O)n(CC4(O)CCN(C(=O)C5CC5)CC4)cnc32)cc1` [Compound I-965], the IC50 fell in the range of 1000 to 10000 nM.

For `O=C(c1ccc(F)cc1)N1CCC(O)(Cn2cnc3c(cnn3-c3ccc(F)c(O)c3)c2=O)CC1` [Compound I-632], the IC50 was in the range of 1000 to 10000 nM.

Turning to `C[C@@H](CC(=O)N1CCC(O)(Cn2cnc3c(cnn3-c3ccc(F)cc3)c2=O)CC1)N1CC2CCCC2C1` (some centres unmarked) [Compound I-524], the IC50 was 1000 to 10000 nM.

For the compound `CNS(=O)(=O)Nc1ccc(-n2ncc3c(=O)n(CC4(O)CCN(C(=O)C5CC5)CC4)cnc32)cc1` [Compound I-504, 5-[(1-Cyclopropanecarbonyl-4-hydroxypiperidin-4-yl)methyl]-1-{4-[(methylsulfamoyl)amino]phenyl}-1H,4H,5H-pyrazolo[3,4-d]pyrimidin-4-one], the IC50 was in the range of 1000 to 10000 nM.

With `CS(=O)(=O)Nc1cccc(-n2ncc3c(=O)n(CC4(O)CCN(C(=O)C5CC5)CC4)cnc32)c1` [Compound I-1417], the IC50 was 1000 to 10000 nM.

For the compound `CN(C)C(=O)N1CCC(O)(Cn2cnc3c(cnn3-c3ccc(F)cc3)c2=O)CC1` [Compound I-279], the IC50 lay within 1000 to 10000 nM.

For the compound `O=C(C[C@@H](C(F)F)n1cccn1)N1CCC(O)(Cn2cnc3c(cnn3-c3ccc(F)cc3)c2=O)CC1` [Compound I-518], the IC50 was less than 200 nM.

For `N#CCOc1ccc(-n2ncc3c(=O)n(CC4(O)CCN(C(=O)c5ccc(F)cc5)CC4)cnc32)cc1` [Compound I-1320], the IC50 was 1000 to 10000 nM.

Regarding `C[C@H](CC(=O)N1CCC(O)(Cn2cnc3c(cnn3-c3ccccn3)c2=O)CC1)c1ccccc1` [Compound I-70], the IC50 is 200 to 1000 nM.

In the case of `O=C(c1ccc(F)cc1F)N1CCC(O)(Cn2cnc3c(cnn3-c3ccccc3)c2=O)CC1` [Compound I-209], the IC50 lay in the range of 1000 to 10000 nM.

Regarding `CC(CC(=O)N1CCC(O)(Cn2cnc3c(cnn3-c3ccc(-c4ccccc4)cc3)c2=O)CC1)n1cccn1` (centres unmarked) [Compound I-648], the IC50 is 1000 to 10000 nM.

As to `O=C(c1ccccc1)N1CCC(O)(Cn2cnc3c(cnn3-c3ccc(-c4ccccc4)c(CO)c3)c2=O)CC1` [Compound I-665], the IC50 lay within 1000 to 10000 nM.

With `Cn1ncc2c(=O)n(CC3(O)CCN(C(=O)C[C@@H](c4ccccc4)C(F)(F)F)CC3)cnc21` [Compound I-861], the IC50 was more than 10000 nM.

Take `O=C(c1cnc(C2CC2)o1)N1CCC(O)(Cn2cnc3c(cnn3-c3ccc(Cl)cc3)c2=O)CC1` [Compound I-1130]: the IC50 fell in the range of 200 to 1000 nM.

On to `O=C(c1ccc(C2CC2)cc1)N1CCC(O)(Cn2cnc3c(cnn3-c3ccc(F)cc3)c2=O)CC1` [Compound I-304], for which the IC50 was in the range of 1000 to 10000 nM.

For `O=C(C1CC1)N1CCC(O)(Cn2cnc3c(cnn3-c3cccc(N4CCCCC4)c3)c2=O)CC1` [Compound I-1202], the IC50 was 1000 to 10000 nM.

`Cc1cc(C(=O)N2CCC(O)(Cn3cnc4c(cnn4-c4ccccc4)c3=O)CC2)nn1C` [Compound I-229]: the IC50 lay within 1000 to 10000 nM.

Take `O=C(C1CC1)N1CCC(O)(Cn2cnc3c(cnn3-c3ccc(-c4ccccn4)cc3)c2=O)CC1` [Compound I-1214]: the IC50 fell in the range of 1000 to 10000 nM.

In the case of `CN1CCC(Oc2ccc(-c3ccc(-n4ncc5c(=O)n(CC6(O)CCN(C(=O)C7CC7)CC6)cnc54)cc3)cc2)C1` (centres unmarked) [Compound I-678], the IC50 fell in the range of 200 to 1000 nM.

In the case of `O=C(c1ccc(Oc2ncccn2)cc1)N1CCC(O)(Cn2cnc3c(cnn3-c3ccc(F)cc3)c2=O)CC1` [Compound I-539], the IC50 was 1000 to 10000 nM.

Regarding `O=C(C1CC1)N1CCC(O)(Cn2cnc3c(cnn3-c3cccc(-c4cncc(F)c4)c3)c2=O)CC1` [Compound I-387], the IC50 lay within 1000 to 10000 nM.

Regarding `CN1CCCC(CNc2cccc(-n3ncc4c(=O)n(CC5(O)CCN(C(=O)C6CC6)CC5)cnc43)c2)C1` (centres unmarked) [Compound I-1197], the IC50 is 200 to 1000 nM.

In the case of `Cc1cc(C)c(-n2ncc3c(=O)n(CC4(O)CCN(C(=O)C5CC5)CC4)cnc32)c(C)c1` [Compound I-26], the IC50 was more than 10000 nM.

`O=C(c1ccc2c(Cl)ccnc2c1)N1CCC(O)(Cn2cnc3c(cnn3-c3ccccc3)c2=O)CC1` [Compound I-282]: the IC50 lay within 1000 to 10000 nM.
